Data: paper PMC10809502, “Application of a new MDCKII-MDR1 cell model to measure the extent of drug distribution in vitro at equilibrium for prediction of in vivo unbound brain-to-plasma drug distribution” (Fluids and Barriers of the CNS, 2024)
Read-outs that look alike come from different tables or passages of the source.

Key:
P-gp (human MDR1) [1] = assay: in vitro; settings: dog; for Papp B→A at 60 min, 0.5 μM / efflux ratio at 60 min, 0.5 μM / Papp A→B at 60 min, 0.5 μM: MDCK-MDR1, pH 7.4
[2] = cited from earlier work
[3] = target: T1, Bovine Serum Albumin (BSA) (Bos taurus, UniProt P02769); assay: Fraction unbound in 35 μM BSA, equilibrium dialysis; settings: for fraction unbound at 5 h, 1 μM: bovine; for Predicted fu (%) BSA 35 μM (D = 20): calculated with Eq. 2 from fu measured in 100% matrices (ref 20), dilution factor 20
T1 sequence (P02769 25-607): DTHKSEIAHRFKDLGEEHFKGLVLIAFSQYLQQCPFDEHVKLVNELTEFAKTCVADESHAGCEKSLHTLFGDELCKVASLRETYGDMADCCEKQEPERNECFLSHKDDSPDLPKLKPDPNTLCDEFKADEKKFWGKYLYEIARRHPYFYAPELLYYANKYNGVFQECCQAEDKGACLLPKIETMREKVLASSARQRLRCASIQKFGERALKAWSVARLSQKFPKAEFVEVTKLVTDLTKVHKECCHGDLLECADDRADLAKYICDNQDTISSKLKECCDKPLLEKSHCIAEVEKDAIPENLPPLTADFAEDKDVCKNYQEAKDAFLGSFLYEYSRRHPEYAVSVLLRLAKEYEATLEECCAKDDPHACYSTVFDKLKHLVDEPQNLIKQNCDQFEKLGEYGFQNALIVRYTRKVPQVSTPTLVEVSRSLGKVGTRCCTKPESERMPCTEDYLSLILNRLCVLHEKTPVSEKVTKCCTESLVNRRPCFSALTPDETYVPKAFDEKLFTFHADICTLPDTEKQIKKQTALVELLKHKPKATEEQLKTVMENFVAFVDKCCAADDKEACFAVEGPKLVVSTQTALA

[4] = Fraction unbound in 20-fold diluted brain homogenate, equilibrium dialysis; settings: for fraction unbound at 5 h, 1 μM: Göttingen, minipig, pH 7.4; for Predicted fu (%) Brain (D = 20): calculated with Eq. 2 from fu measured in 100% matrices (ref 20), dilution factor 20
P-gp (human MDR1) [5] = assay: Equilibrium distribution study (in vitro Kp,brain / Kp,uu,brain) across MDCKII-MDR1 cells, BSA apical, brain homogenate basolateral, Uni-L and Bi-L; settings: dog; for Kp at 29 h, 1 μM: brain homogenate/BSA ratio
[6] = brain homogenate
[7] = target: T1, Bovine Serum Albumin (BSA); settings: isolated protein
in vitro = settings: Göttingen, minipig, brain homogenate, pH 7.4
[8] = target: T1, Bovine Serum Albumin (BSA); assay: in vitro; settings: isolated protein
P-gp (human MDR1) [9] = assay: in vitro; settings: dog
[10] = 20-fold diluted brain homogenate
[11] = MDCK-MDR1, pH 7.5, in vitro determined Kp,brain Bi-L, Bi-L (compound loaded both sides), 29 h
[12] = MDCK-MDR1, pH 7.5, in vitro determined Kp,brain Uni-L, Uni-L (compound loaded apically in BSA), 29 h
[13] = pH 7.5, Recovery Bi-L, mass balance Eq. 7, Bi-L, 29 h, % printed
[14] = pH 7.5, Recovery Uni-L, mass balance Eq. 6, Uni-L, 29 h, % printed
[15] = pH 7.5, assay recovery, equilibrium distribution experiment, setup (Uni-L/Bi-L) not given

SMILES | Papp B→A at 60 min, 0.5 μM (P-gp (human MDR1) [1]) | efflux ratio at 60 min, 0.5 μM (P-gp (human MDR1) [1]) | Kp,uu,brain in vivo ([2]; Göttingen minipig) | fraction unbound at 5 h, 1 μM ([3]; 35 μM BSA) | Predicted fu (%) BSA 35 μM (D = 20) [3] | fraction unbound at 5 h, 1 μM [4, 10] | Predicted fu (%) Brain (D = 20) [4] | Kp at 29 h, 1 μM (P-gp (human MDR1) [5]; [11]) | Kp at 29 h, 1 μM (P-gp (human MDR1) [5]; [12]) | recovery at 29 h, 1 μM (P-gp (human MDR1) [5]; [13]) | recovery at 29 h, 1 μM (P-gp (human MDR1) [5]; [14]) | further results
CC(C)NCC(O)COc1cccc2ccccc12 (stereo not drawn) [Propranolol, propranolol] | 3.7 ± 0.1 ×10⁻⁶ cm/s | 0.8 | 0.76 | 0.897 ± 0.018 | 86.8% | 0.35 ± 0.012 | 37.4% | 1.9 | 2.2 | 21% | 25% | recovery at 29 h, 1 μM (P-gp (human MDR1) [5]; [15]): ~20%
CN(C)CCCC1(c2ccc(F)cc2)OCc2cc(C#N)ccc21 (stereo not drawn) [Citalopram, citalopram] | 7.7 ± 0.3 ×10⁻⁶ cm/s | 1.7 | 0.90 | 0.973 ± 0.027 | 96.0% | 0.513 ± 0.066 | 47.9% | 1.5 | 1.5 | 67% | 73% | 
CN(C)CCC=C1c2ccccc2COc2ccccc21 [Doxepin, doxepin] | 2.2 ± 0.1 ×10⁻⁶ cm/s | 1.1 |  | 0.922 ± 0.029 | 87.1% | 0.248 ± 0.05 | 33.0% | 2.2 | 2.2 | 54% | 59% | Papp A→B at 60 min, 0.5 μM (P-gp (human MDR1) [1]): 2 ± 0.1 ×10⁻⁶ cm/s; recovery at 60 min, 0.5 μM (P-gp (human MDR1) [1]; MDCKII-MDR1 cell monolayers (transfected with human MDR1), pH 7.4): ~50%; recovery at 29 h, 1 μM (P-gp (human MDR1) [5]; [15]): ~50%
CN/C(=N/CCSCc1nc[nH]c1C)NC#N [Cimetidine, cimetidine] | 2.5 ± 0.2 ×10⁻⁶ cm/s |  | 0.02 | > 1 | 99.2% | 0.938 ± 0.05 | 95.6% | 0.6 | 0.19 | 78% | 73% | Papp A→B at 60 min, 0.5 μM (P-gp (human MDR1) [1]): < 1 ×10⁻⁶ cm/s
O=C1CC2(CCCC2)CC(=O)N1CCCCN1CCN(c2ncccn2)CC1 [Buspirone, buspirone] | 20 ± 3 ×10⁻⁶ cm/s |  |  |  |  |  |  |  |  | 71% | 76% | 
COc1ccccc1N1CCN(CCN(C(=O)C2CCCCC2)c2ccccn2)CC1 [Way-100635] |  |  | 0.40 |  | 87.1% |  | 71.8% |  |  |  |  | Kp,uu,brain in Vitro Uni-L (Det. fu) (MDCKII-MDR1 cells): 1.09; Kp,uu,brain in Vitro Uni-L (Pre.fu) (MDCKII-MDR1 cells): 0.96; assay recovery, equilibrium distribution experiment (MDCKII-MDR1 cells): around 50%; in vitro Kp,uu,brain (MDCKII-MDR1 cells; dog, MDCK-MDR1): ~ 1; Determined fu (%) BSA 35 μM (D = 20) ([3]; 35 μM BSA, 1 μM, 5 h, 37 ℃, Eq. 1, mean ± SD N=3): 80.2 ± 0.9%; Determined fu (%) Brain (D = 20) ([4]; 20-fold diluted brain homogenate, 1 μM, 5 h, 37 ℃, Eq. 1, mean ± SD N=3): 74.8 ± 8.0%
Cc1cc(=O)n(-c2ccccc2)n1C [Antipyrine, antipyrine] | 48 ± 3 ×10⁻⁶ cm/s | 1.2 |  |  |  |  |  |  |  |  |  | Predicted fu (%) Brain (D = 20) [6]: > 100%; Predicted fu (%) BSA 35 μM (D = 20) [7]: 99.9%; Kp,uu,brain in Vitro Uni-L (Det. fu) (MDCKII-MDR1 cells; dog, 29 h, 1 μM, pH 7.5): 1.05; Kp,uu,brain in Vitro Uni-L (Pre.fu) (MDCKII-MDR1 cells; dog, 29 h, 1 μM, pH 7.5): 1.24; fraction unbound at 5 h, 1 μM (in vitro): 0.843 ± 0.042; fraction unbound at 5 h, 1 μM [8]: > 1; Kp at 29 h, 1 μM (P-gp (human MDR1) [9]; MDCK-MDR1, pH 7.5, in vitro determined Kp,brain Bi-L): 1.2; Kp at 29 h, 1 μM (P-gp (human MDR1) [9]; MDCK-MDR1, pH 7.5, in vitro determined Kp,brain Uni-L): 1.2; recovery at 29 h, 1 μM (P-gp (human MDR1) [9]; pH 7.5, Recovery Bi-L): 77%; recovery at 29 h, 1 μM (P-gp (human MDR1) [9]; pH 7.5, Recovery Uni-L): 77%; Kp,uu,brain in vivo ([2]; minipig, in vivo): 0.80
